According to patent US20060063759A1, “Tricyclic steroid hormone nuclear receptor modulators” (priority 2002, published 2006):

Key:
[1] = target: T1, glucocorticoid receptor (Homo sapiens, UniProt P04150); test: Glucocorticoid Receptor Binding Assay ([3H]-dexamethasone, A549 cell extract); conditions: [3H]-dexamethasone binding, read-out: GR Ki
T1 construct: containing 50-200 ug of A549 cell extract and 1.86 nM [^3H]-dexamethasone; host or cells: A549 human lung epithelial cells (sonicated cell extract)
T1 sequence (P04150 1-777): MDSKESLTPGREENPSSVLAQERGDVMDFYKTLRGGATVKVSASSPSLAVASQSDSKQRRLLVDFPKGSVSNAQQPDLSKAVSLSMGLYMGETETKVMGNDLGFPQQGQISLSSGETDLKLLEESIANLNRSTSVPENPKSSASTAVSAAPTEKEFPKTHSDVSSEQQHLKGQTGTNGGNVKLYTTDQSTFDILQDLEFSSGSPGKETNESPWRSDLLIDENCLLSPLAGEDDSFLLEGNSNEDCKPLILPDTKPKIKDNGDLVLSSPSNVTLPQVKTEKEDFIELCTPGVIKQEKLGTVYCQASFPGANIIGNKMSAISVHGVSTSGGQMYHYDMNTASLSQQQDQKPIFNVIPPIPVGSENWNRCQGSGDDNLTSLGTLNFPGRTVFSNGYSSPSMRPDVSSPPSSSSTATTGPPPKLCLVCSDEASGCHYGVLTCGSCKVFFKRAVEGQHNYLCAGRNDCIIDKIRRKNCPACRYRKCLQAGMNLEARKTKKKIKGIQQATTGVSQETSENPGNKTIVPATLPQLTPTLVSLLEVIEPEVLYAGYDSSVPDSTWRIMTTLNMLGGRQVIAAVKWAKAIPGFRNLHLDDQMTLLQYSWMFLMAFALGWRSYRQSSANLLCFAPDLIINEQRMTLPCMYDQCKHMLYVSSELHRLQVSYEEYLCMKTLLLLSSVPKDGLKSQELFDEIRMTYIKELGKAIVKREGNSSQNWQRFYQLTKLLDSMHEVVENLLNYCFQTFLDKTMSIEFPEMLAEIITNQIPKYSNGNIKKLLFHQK
Method in brief: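 A549 cell extract (50–200 ug) incubated with 1.86 nM [3H]-dexamethasone and test compound for 16 h at 4 °C in Tris-HCl pH 7.2 buffer with glycerol and molybdate. Unbound radioligand removed by dextran-coated charcoal, then supernatant bound counts measured by scintillation.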

[2] = target: T2, human MR (Homo sapiens, UniProt P08235); test: Mineralocorticoid Receptor Binding Assay ([3H]-aldosterone); conditions: [3H]-aldosterone binding, human MR expressed in Sf9 cells; read-out: MR Ki
T2 construct: The full length human MR gene is cloned from a human kidney or human brain cDNA library; His tag from the pAcHLT vector (own knowledge); made in house; host or cells: Sf9 insect cells (baculovirus, pAcHLT transfer vector)
T2 sequence (P08235 1-984): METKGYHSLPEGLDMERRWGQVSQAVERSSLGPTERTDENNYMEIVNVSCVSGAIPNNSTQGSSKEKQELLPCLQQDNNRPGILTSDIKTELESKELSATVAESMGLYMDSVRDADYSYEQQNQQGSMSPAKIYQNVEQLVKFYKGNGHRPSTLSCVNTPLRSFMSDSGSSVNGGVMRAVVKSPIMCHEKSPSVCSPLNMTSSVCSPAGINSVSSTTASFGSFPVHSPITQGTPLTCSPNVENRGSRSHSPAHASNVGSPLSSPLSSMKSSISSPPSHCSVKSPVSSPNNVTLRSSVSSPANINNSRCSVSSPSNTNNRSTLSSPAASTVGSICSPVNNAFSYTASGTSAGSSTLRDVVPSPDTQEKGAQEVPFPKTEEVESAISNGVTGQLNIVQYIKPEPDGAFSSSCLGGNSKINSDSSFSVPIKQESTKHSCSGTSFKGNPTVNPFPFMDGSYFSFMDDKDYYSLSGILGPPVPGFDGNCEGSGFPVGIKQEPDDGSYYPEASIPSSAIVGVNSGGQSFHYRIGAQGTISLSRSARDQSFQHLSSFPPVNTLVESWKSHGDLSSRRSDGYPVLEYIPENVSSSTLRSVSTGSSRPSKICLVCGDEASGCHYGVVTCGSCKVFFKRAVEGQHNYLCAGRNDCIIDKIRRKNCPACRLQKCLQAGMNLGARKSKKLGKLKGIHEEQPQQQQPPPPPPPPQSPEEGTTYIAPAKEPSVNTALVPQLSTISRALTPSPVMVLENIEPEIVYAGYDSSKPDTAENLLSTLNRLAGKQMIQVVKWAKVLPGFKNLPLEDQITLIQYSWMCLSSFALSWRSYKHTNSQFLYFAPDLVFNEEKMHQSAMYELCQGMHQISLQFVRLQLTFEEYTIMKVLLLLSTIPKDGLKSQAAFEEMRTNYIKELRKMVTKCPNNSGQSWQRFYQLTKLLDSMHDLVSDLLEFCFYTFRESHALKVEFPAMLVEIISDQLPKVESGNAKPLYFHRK
Method in brief: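 Lysate supernatant of Sf9 cells expressing full-length human MR (20-25 μg protein) was incubated with 0.5 nM [3H]-aldosterone and test compound in molybdate/Tris/phosphate/glycerol buffer, pH 7.5, ~16 h at 4 °C. Bound ligand was filtered and counted by scintillation; IC50 is the concentration halving [3H]-aldosterone binding.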

Compound	Ki [1]	Ki [2]
Nc1cccc(/C=C2\c3ccc(F)cc3CCc3ncccc32)c1 [Example 532]	< 1000 nM	< 500 nM
Nc1cccc(/C=C2/c3ccc(F)cc3CCc3ncccc32)c1 [Example 533]	< 1000 nM	< 500 nM
Nc1ccc(/C=C2\c3ccc(F)cc3CCc3ncccc32)cc1 [Example 534]	< 10000 nM	< 500 nM
Nc1ccc(/C=C2/c3ccc(F)cc3CCc3ncccc32)cc1 [Example 535]	< 10000 nM	< 1000 nM
O=c1[nH]c2cc(/C=C3\c4ccc(F)cc4CCc4ncccc43)ccc2s1 [Example 536]	< 500 nM	< 500 nM
CS(=O)(=O)Nc1ccc(/C=C2/c3ccc(F)cc3CCc3ncccc32)cc1 [Example 537]	< 10000 nM	< 500 nM
CS(=O)(=O)Nc1cccc(CC2c3ccccc3CCc3cccnc32)c1 (centres unmarked) [Example 538]	< 500 nM	< 500 nM
Fc1ccc2c(c1)CCc1ncccc1/C2=C/c1ccccc1C(F)F [Example 539]	< 500 nM	< 500 nM
Fc1ccc2c(c1)CCc1ncccc1/C2=C\c1ccccc1C(F)F [Example 540]	< 500 nM	< 500 nM
Fc1ccc2c(c1)CCc1ncccc1/C2=C/c1cccc(C(F)F)c1 [Example 541]	< 1000 nM	< 500 nM
Fc1ccc2c(c1)CCc1ncccc1/C2=C\c1cccc(C(F)F)c1 [Example 542]	< 10000 nM	< 500 nM
Fc1ccc2c(c1)CCc1ncccc1/C2=C/c1ccc(C(F)F)cc1 [Example 543]	< 10000 nM	< 500 nM
Fc1ccc2c(c1)CCc1ncccc1/C2=C\c1ccc(C(F)F)cc1 [Example 544]	< 1000 nM	< 500 nM
CC(=O)Nc1cccc(/C=C2\c3ccc(F)cc3CCc3ncccc32)c1 [Example 545]	< 10000 nM	< 500 nM
CS(=O)(=O)Nc1cccc(/C=C2/c3ccc(F)cc3CCc3nc(C#N)ccc32)c1 [Example 546]	< 500 nM	< 500 nM
CS(=O)(=O)Nc1cccc(/C=C2\c3ccc(F)cc3CCc3nc(C#N)ccc32)c1 [Example 547]	< 500 nM	< 500 nM
CS(=O)(=O)Nc1cc(F)cc(/C=C2\c3ccc(Cl)cc3CCc3cccnc32)c1 [Example 548]	< 10000 nM	< 500 nM
O=c1[nH]c2ccc(/C=C3/c4ccc(F)cc4CCc4nc(Cl)sc43)cc2[nH]1 [Example 549]	< 10000 nM	< 500 nM
CS(=O)(=O)Nc1cccc(/C=C2\c3ccc(F)cc3CCc3nc(Cl)sc32)c1 [Example 550]	< 500 nM	< 500 nM
CS(=O)(=O)Nc1cccc(/C=C2/c3ccc(F)cc3CCc3nc(Cl)sc32)c1 [Example 551]	< 500 nM	< 500 nM
CS(=O)(=O)Nc1cccc(/C=C2/c3ccc(Cl)cc3CCc3ncsc32)c1 [Example 552]	< 500 nM	< 500 nM
CS(=O)(=O)Nc1cccc(/C=C2\c3ccc(Cl)cc3CCc3ncsc32)c1 [Example 553]	< 500 nM	< 500 nM
CS(=O)(=O)Nc1cccc(/C=C2\c3scnc3CCc3cccc(Cl)c32)c1 [Example 554]	< 1000 nM	< 500 nM
CS(=O)(=O)Nc1cccc(/C=C2/c3ccccc3CCc3ncsc32)c1 [Example 555]	< 500 nM	< 500 nM
CS(=O)(=O)Nc1cccc(/C=C2\c3ccccc3CCc3ncsc32)c1 [Example 556]	< 500 nM	< 500 nM

Compound	Ki [1]	Ki [2]
CS(=O)(=O)Nc1cccc(/C=C2/c3cccnc3CCc3cccc(F)c32)c1 [Example 557]	< 500 nM	< 500 nM
CS(=O)(=O)Nc1cccc(/C=C2\c3ccccc3CCc3nc(N)sc32)c1 [Example 559]	< 500 nM	< 500 nM
Nc1nc2c(s1)C(=Cc1cccc(O)c1)c1ccccc1CC2 [Example 560]	< 1000 nM	< 500 nM
O=c1[nH]c2ccc(/C=C3\c4ccccc4CCc4ncsc43)cc2[nH]1 [Example 561]	< 1000 nM	< 500 nM
O=c1[nH]c2cc(/C=C3\c4ccccc4CCc4ncsc43)ccc2o1 [Example 562]	< 500 nM	< 500 nM
CS(=O)(=O)Nc1cccc(/C=C2/c3ccc(F)cc3CCc3ncsc32)c1 [Example 563]	< 500 nM	< 500 nM
CS(=O)(=O)Nc1cccc(/C=C2\c3ccc(F)cc3CCc3ncsc32)c1 [Example 564]	< 500 nM	< 500 nM
O=c1[nH]c2ccc(/C=C3\c4ccc(F)cc4CCc4ncsc43)cc2[nH]1 [Example 565]	< 10000 nM	< 500 nM
O=c1[nH]c2ccc(/C=C3/c4ccc(F)cc4CCc4ncsc43)cc2[nH]1 [Example 566]	< 10000 nM	< 500 nM
CS(=O)(=O)Nc1cccc(/C=C2\c3cccnc3CCc3c(Cl)cccc32)c1 [Example 567]	< 10000 nM	< 500 nM
CS(=O)(=O)Nc1cccc(/C=C2/c3ccc(Cl)cc3CCc3ncccc32)c1 [Example 569]	< 10000 nM	< 500 nM
CS(=O)(=O)Nc1cccc(/C=C2\c3ccc(Cl)cc3CCc3ncccc32)c1 [Example 570]	< 1000 nM	< 500 nM
CS(=O)(=O)Nc1cccc(/C=C2/c3cccnc3CCc3c(Cl)cccc32)c1 [Example 573]	< 500 nM	< 500 nM
CS(=O)(=O)Nc1cccc(/C=C2\c3cccnc3CCc3c(F)cccc32)c1 [Example 574]	< 500 nM	< 500 nM
Fc1cccc2c1CCc1ncccc1C2=Cc1cccc(Cl)c1 [Example 575]	< 500 nM	< 500 nM
CS(=O)(=O)Nc1cccc(/C=C2/c3cccnc3CCc3c(F)cccc32)c1 [Example 576]	< 10000 nM	< 500 nM
Fc1ccc2c(c1)CCc1ncccc1/C2=C/c1ccccc1F [Example 578]	< 10000 nM	< 500 nM
Fc1cccc(/C=C2\c3ccc(F)cc3CCc3ncccc32)c1 [Example 579]	< 500 nM	< 500 nM
Fc1ccc(/C=C2\c3ccc(F)cc3CCc3ncccc32)cc1 [Example 580]	< 10000 nM	< 500 nM
Fc1ccc(/C=C2/c3ccc(F)cc3CCc3ncccc32)cc1 [Example 581]	< 10000 nM	< 500 nM
Fc1ccc2c(c1)CCc1ncccc1/C2=C\c1ccccc1F [Example 582]	< 10000 nM	< 500 nM
Fc1cccc(/C=C2/c3ccc(F)cc3CCc3ncccc32)c1 [Example 583]	< 10000 nM	< 500 nM
COC(=O)c1ccc(/C=C2\c3ccc(F)cc3CCc3ncccc32)cc1 [Example 584]	< 10000 nM	< 1000 nM
COC(=O)c1cccc(/C=C2\c3ccc(F)cc3CCc3ncccc32)c1 [Example 585]	< 10000 nM	< 500 nM
